{"source": "patent EP3389689B1", "about": "“ACTIVE INGREDIENTS FOR TOPICAL APPLICATION” (priority 2015, dated 2021)", "key": {"[1]": {"test_system": "genes involved in collagen fiber maturation", "experiment": "Gene-expression analysis, summary statement in words", "assay_type": "cell-based, human", "details": "result in words; fibroblasts, 0.01%, 24hrs", "protocol": "(§1) Normal human dermal fibroblasts at passage 7 from a donor were cultured in DMEM with L-glutamine 2mM, Penicillin 50U/ml-Streptomycin 50ug/ml and 10% FCS in a 5% CO2 atmosphere at 37°C. After equilibration of cell in 1% FCS for 24hrs the respective peptides H-(beta-Ala)-Pro-Dab-NH-benzyl [CAS 823202-99-9], respectively N-palmitoyl-Gly-His-Lys [147732-56-7] / N-palmitoyl-Gly-Gln-Pro-Arg [221227-05-0] (2:1) diluted in growth medium to a concentration of 0.01% were added and the cells were incubated for an additional 24hrs. At the end of incubation cells were washed in PBS and immediately frozen at -80°C. Total RNA was extracted using NucleoSpin RNA Plus kit (Macherey-Nagel) according to supplier's instructions. cDNA was synthesized by reverse transcription of total RNA using Transcriptor Reverse Transcriptase (Roche). PCR was performed on a LightCycler device (Roche Molecular Systems Inc.) according to manufacturer's instructions. Raw data were analyzed using Microsoft Excel."}, "LOXL2": {"test_system": "LOXL2", "experiment": "Gene-expression analysis (PCR) in normal human dermal fibroblasts", "assay_type": "cell-based", "details": "peptide 0.01% in growth medium, timepoint 24hrs", "protocol": "as §1"}, "ADAMTS2": {"test_system": "ADAMTS2", "experiment": "Gene-expression analysis (PCR) in normal human dermal fibroblasts", "assay_type": "cell-based", "details": "peptide 0.01% in growth medium, timepoint 24hrs", "protocol": "as §1"}, "PCOLCE": {"test_system": "PCOLCE", "experiment": "Gene-expression analysis (PCR) in normal human dermal fibroblasts", "assay_type": "cell-based", "details": "peptide 0.01% in growth medium, timepoint 24hrs", "protocol": "as §1"}, "PLOD3": {"test_system": "PLOD3", "experiment": "Gene-expression analysis (PCR) in normal human dermal fibroblasts", "assay_type": "cell-based", "details": "peptide 0.01% in growth medium, timepoint 24hrs", "protocol": "as §1"}}, "data": [{"substance": "N-palmitoyl-Gly-His-Lys [147732-56-7] / N-palmitoyl-Gly-Gln-Pro-Arg [221227-05-0] (2:1)", "values": [{"measurement": "up-regulation of genes involved in collagen fiber maturation", "setting": "[1]", "result": "only up-regulates LOXL2 and much less PLOD3"}, {"measurement": "gene expression LOXL2", "setting": "LOXL2", "result": 292, "unit": "%"}, {"measurement": "gene expression ADAMTS2", "setting": "ADAMTS2", "result": 105, "unit": "%"}, {"measurement": "gene expression PCOLCE", "setting": "PCOLCE", "result": 94, "unit": "%"}, {"measurement": "gene expression PLOD3", "setting": "PLOD3", "result": 163, "unit": "%"}]}]}
